Activity calls are given as the source filed them. The calls are words filed in the database; no cut-off is given here.
Legend:
[1] = tested on: PC-3; test: Antiproliferative activity against human PC3 cells at 0.3 uM by SRB assay; type: functional
[2] = tested on: ACHN; test: Antiproliferative activity against human ACHN cells by SRB assay; type: functional
[3] = tested on: ACHN; test: Antiproliferative activity against human ACHN cells at 1 uM by SRB assay; type: functional
[4] = tested on: ACHN; test: Antiproliferative activity against human ACHN cells at 0.3 uM by SRB assay; type: functional
[5] = tested on: MDA-MB-231; test: Antiproliferative activity against human MDA-MB-231 cells at 1 uM by SRB assay; type: functional
[6] = tested on: ACHN; test: Antiproliferative activity against human ACHN cells at 3 uM by SRB assay; type: functional
[7] = tested on: NCI-H23; test: Antiproliferative activity against human NCI-H23 cells by SRB assay; type: functional
[8] = tested on: PC-3; test: Antiproliferative activity against human PC3 cells at 0.1 uM by SRB assay; type: functional
[9] = tested on: HCT-15; test: Antiproliferative activity against human HCT15 cells at 1 uM by SRB assay; type: functional
[10] = tested on: HCT-15; test: Antiproliferative activity against human HCT15 cells at 3 uM by SRB assay; type: functional
[11] = tested on: ACHN; test: Antiproliferative activity against human ACHN cells at 10 uM by SRB assay; type: functional
[12] = tested on: MDA-MB-231; test: Antiproliferative activity against human MDA-MB-231 cells at 10 uM by SRB assay; type: functional
[13] = tested on: PC-3; test: Antiproliferative activity against human PC3 cells by SRB assay; type: functional
[14] = tested on: HCT-15; test: Antiproliferative activity against human HCT15 cells at 0.1 uM by SRB assay; type: functional
[15] = tested on: HCT-15; test: Antiproliferative activity against human HCT15 cells at 10 uM by SRB assay; type: functional
[16] = tested on: NUGC-3; test: Antiproliferative activity against human NUGC3 cells at 0.1 uM by SRB assay; type: functional
[17] = tested on: MDA-MB-231; test: Antiproliferative activity against human MDA-MB-231 cells at 3 uM by SRB assay; type: functional
[18] = tested on: HCT-15; test: Antiproliferative activity against human HCT15 cells at 0.3 uM by SRB assay; type: functional
[19] = tested on: NUGC-3; test: Antiproliferative activity against human NUGC3 cells at 10 uM by SRB assay; type: functional
[20] = tested on: NUGC-3; test: Antiproliferative activity against human NUGC3 cells at 1 uM by SRB assay; type: functional
[21] = tested on: PC-3; test: Antiproliferative activity against human PC3 cells at 3 uM by SRB assay; type: functional
[22] = tested on: NCI-H23; test: Antiproliferative activity against human NCI-H23 cells at 0.1 uM by SRB assay; type: functional
[23] = tested on: MDA-MB-231; test: Antiproliferative activity against human MDA-MB-231 cells by SRB assay; type: functional
[24] = tested on: PC-3; test: Antiproliferative activity against human PC3 cells at 1 uM by SRB assay; type: functional
[25] = tested on: NUGC-3; test: Antiproliferative activity against human NUGC3 cells at 3 uM by SRB assay; type: functional
[26] = tested on: MDA-MB-231; test: Antiproliferative activity against human MDA-MB-231 cells at 0.1 uM by SRB assay; type: functional
[27] = tested on: NUGC-3; test: Antiproliferative activity against human NUGC3 cells at 0.3 uM by SRB assay; type: functional
[28] = tested on: MDA-MB-231; test: Antiproliferative activity against human MDA-MB-231 cells at 0.3 uM by SRB assay; type: functional
[29] = tested on: NCI-H23; test: Antiproliferative activity against human NCI-H23 cells at 3 uM by SRB assay; type: functional
[30] = tested on: NCI-H23; test: Antiproliferative activity against human NCI-H23 cells at 10 uM by SRB assay; type: functional
[31] = tested on: PC-3; test: Antiproliferative activity against human PC3 cells at 10 uM by SRB assay; type: functional
[32] = tested on: ACHN; test: Antiproliferative activity against human ACHN cells at 0.1 uM by SRB assay; type: functional
[33] = tested on: NCI-H23; test: Antiproliferative activity against human NCI-H23 cells at 1 uM by SRB assay; type: functional
[34] = tested on: NUGC-3; test: Antiproliferative activity against human NUGC3 cells by SRB assay; type: functional
[35] = tested on: NCI-H23; test: Antiproliferative activity against human NCI-H23 cells at 0.3 uM by SRB assay; type: functional
[36] = tested on: HCT-15; test: Antiproliferative activity against human HCT15 cells by SRB assay; type: functional
[37] = biological target: Rho-related GTP-binding protein RhoB (Homo sapiens) (UniProt P62745); test: Transactivation of RhoB in human HeLa cells by luciferase reporter assay; type: cell-based
Sequence of Rho-related GTP-binding protein RhoB (Homo sapiens) (P62745 whole entry): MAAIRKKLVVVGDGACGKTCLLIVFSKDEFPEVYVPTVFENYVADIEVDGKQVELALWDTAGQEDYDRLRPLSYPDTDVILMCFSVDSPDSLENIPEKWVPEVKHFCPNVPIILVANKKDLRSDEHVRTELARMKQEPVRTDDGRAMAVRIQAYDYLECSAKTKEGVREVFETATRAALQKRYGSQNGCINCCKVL

C=CC[N+](CC)(CC)CCN(C)C(=O)CCCCCCCCCCCCC
growth, % of control at 0.3 µM [1]: 74.9%
GI50 [2]: 100 nM
growth, % of control at 1 µM [3]: 16.8%
growth, % of control at 0.3 µM [4]: 42.6%
growth, % of control at 1 µM [5]: 28.7%
growth, % of control at 3 µM [6]: 8.6%
GI50 [7]: 240 nM
growth, % of control at 0.1 µM [8]: 91.2%
growth, % of control at 1 µM [9]: 96.3%
growth, % of control at 3 µM [10]: 85.1%
growth, % of control at 10 µM [11]: -9%
growth, % of control at 10 µM [12]: -11.6%
GI50 [13]: 210 nM
growth, % of control at 0.1 µM [14]: 97.4%
growth, % of control at 10 µM [15]: 57.9%
growth, % of control at 0.1 µM [16]: 109%
growth, % of control at 3 µM [17]: 6.6%
growth, % of control at 0.3 µM [18]: 96.8%
growth, % of control at 10 µM [19]: -7.8%
growth, % of control at 1 µM [20]: 1.1%
growth, % of control at 3 µM [21]: -6%
growth, % of control at 0.1 µM [22]: 88%
GI50 [23]: 300 nM
growth, % of control at 1 µM [24]: 12.2%
growth, % of control at 3 µM [25]: -3.5%
growth, % of control at 0.1 µM [26]: 93.2%
growth, % of control at 0.3 µM [27]: 45.3%
growth, % of control at 0.3 µM [28]: 82.5%
growth, % of control at 3 µM [29]: 7.8%
growth, % of control at 10 µM [30]: -10%
growth, % of control at 10 µM [31]: -21.6%
growth, % of control at 0.1 µM [32]: 69%
growth, % of control at 1 µM [33]: 24.2%
GI50 [34]: 140 nM
growth, % of control at 0.3 µM [35]: 74.2%
GI50 [36]: > 10000 nM

C=CC[N+]1(CC)CCN(C(=O)CCCCCCCCCCCCCCC)CC1
GI50 [2]: 500 nM
GI50 [7]: 880 nM
GI50 [13]: 370 nM
Activity [37]: Active
GI50 [23]: 680 nM
GI50 [34]: 270 nM

CCCCCCCCCCCCCCCC(=O)N(C)CCC[N+](C)(C)CC
growth, % of control at 0.3 µM [1]: 101%
GI50 [2]: 1020 nM
growth, % of control at 1 µM [3]: 62.3%
growth, % of control at 0.3 µM [4]: 95%
growth, % of control at 1 µM [5]: 73.3%
growth, % of control at 3 µM [6]: 41.5%
GI50 [7]: 780 nM
growth, % of control at 0.1 µM [8]: 105%
growth, % of control at 1 µM [9]: 84.4%
growth, % of control at 3 µM [10]: 69.2%
growth, % of control at 10 µM [11]: 15.7%
growth, % of control at 10 µM [12]: 19%
GI50 [13]: 490 nM
growth, % of control at 0.1 µM [14]: 95.6%
growth, % of control at 10 µM [15]: 40.3%
growth, % of control at 0.1 µM [16]: 101%
growth, % of control at 3 µM [17]: 47.2%
growth, % of control at 0.3 µM [18]: 98.3%
growth, % of control at 10 µM [19]: -37.1%
growth, % of control at 1 µM [20]: 7.32%
growth, % of control at 3 µM [21]: 1.57%
growth, % of control at 0.1 µM [22]: 103%
GI50 [23]: 1380 nM
growth, % of control at 1 µM [24]: 44.6%
growth, % of control at 3 µM [25]: -18.5%
growth, % of control at 0.1 µM [26]: 98.7%
growth, % of control at 0.3 µM [27]: 77.8%
growth, % of control at 0.3 µM [28]: 97.7%
growth, % of control at 3 µM [29]: 31.2%
growth, % of control at 10 µM [30]: -15.5%
growth, % of control at 10 µM [31]: -17.2%
growth, % of control at 0.1 µM [32]: 95.1%
growth, % of control at 1 µM [33]: 62.9%
GI50 [34]: 220 nM
growth, % of control at 0.3 µM [35]: 100%
GI50 [36]: 3420 nM

CCCCCCCCCCCCCCCC(=O)N(C)CCC[N+](C)(C)Cc1ccccc1
growth, % of control at 0.3 µM [1]: 94.9%
GI50 [2]: 1300 nM
growth, % of control at 1 µM [3]: 79.6%
growth, % of control at 0.3 µM [4]: 90.9%
growth, % of control at 1 µM [5]: 87.3%
growth, % of control at 3 µM [6]: 47.9%
GI50 [7]: 1110 nM
growth, % of control at 0.1 µM [8]: 87.8%
growth, % of control at 1 µM [9]: 96.5%
growth, % of control at 3 µM [10]: 91.4%
growth, % of control at 10 µM [11]: -10.8%
growth, % of control at 10 µM [12]: 13.2%
GI50 [13]: 850 nM
growth, % of control at 0.1 µM [14]: 91.2%
growth, % of control at 10 µM [15]: 91%
growth, % of control at 0.1 µM [16]: 110%
growth, % of control at 3 µM [17]: 41%
growth, % of control at 0.3 µM [18]: 96.6%
growth, % of control at 10 µM [19]: -29.5%
growth, % of control at 1 µM [20]: 50.1%
growth, % of control at 3 µM [21]: 24.4%
growth, % of control at 0.1 µM [22]: 85.2%
GI50 [23]: 1350 nM
growth, % of control at 1 µM [24]: 70.9%
growth, % of control at 3 µM [25]: -9.77%
growth, % of control at 0.1 µM [26]: 85.3%
growth, % of control at 0.3 µM [27]: 105%
growth, % of control at 0.3 µM [28]: 87.3%
growth, % of control at 3 µM [29]: 25%
growth, % of control at 10 µM [30]: -8.96%
growth, % of control at 10 µM [31]: 4.74%
growth, % of control at 0.1 µM [32]: 96.9%
growth, % of control at 1 µM [33]: 91.6%
GI50 [34]: 520 nM
growth, % of control at 0.3 µM [35]: 91.3%
GI50 [36]: > 10000 nM

CCCCCCCCCCCCCCCC(=O)N(C)CC[N+](CC)(CC)CC
growth, % of control at 0.3 µM [1]: 71.9%
GI50 [2]: 270 nM
growth, % of control at 1 µM [3]: 16.7%
growth, % of control at 0.3 µM [4]: 78.5%
growth, % of control at 1 µM [5]: 33.1%
growth, % of control at 3 µM [6]: -15.6%
GI50 [7]: 1110 nM
growth, % of control at 0.1 µM [8]: 87.4%
growth, % of control at 1 µM [9]: 56.7%
growth, % of control at 3 µM [10]: 24.6%
growth, % of control at 10 µM [11]: -42.5%
growth, % of control at 10 µM [12]: -17.3%
GI50 [13]: 230 nM
growth, % of control at 0.1 µM [14]: 89.1%
growth, % of control at 10 µM [15]: 3.4%
growth, % of control at 0.1 µM [16]: 99.2%
growth, % of control at 3 µM [17]: 12.6%
growth, % of control at 0.3 µM [18]: 83.5%
growth, % of control at 10 µM [19]: -50%
growth, % of control at 1 µM [20]: -14.6%
growth, % of control at 3 µM [21]: -5.6%
growth, % of control at 0.1 µM [22]: 84%
GI50 [23]: 360 nM
growth, % of control at 1 µM [24]: 12.6%
growth, % of control at 3 µM [25]: -43.8%
growth, % of control at 0.1 µM [26]: 94.3%
growth, % of control at 0.3 µM [27]: 53.4%
growth, % of control at 0.3 µM [28]: 80.4%
growth, % of control at 3 µM [29]: 45.2%
growth, % of control at 10 µM [30]: 8.5%
growth, % of control at 10 µM [31]: -24.2%
growth, % of control at 0.1 µM [32]: 106%
growth, % of control at 1 µM [33]: 72.7%
GI50 [34]: 160 nM
growth, % of control at 0.3 µM [35]: 84.9%
GI50 [36]: 610 nM

From ChEMBL document CHEMBL2380247, “Synthesis and biological evaluation of novel aliphatic amido-quaternary ammonium salts for anticancer chemotherapy: part II” (2013)
